Experimental data taken from patent US20060173031A1, “Therapeutic agent for schizophrenia” (MITSUBISHI PHARMA CORPORATION, priority 2003, published 2006).

Tested on: Phencyclidine (PCP)-induced passive avoidance reaction disorder
Test: Phencyclidine (PCP)-induced passive avoidance reaction disorder in rats
Type: in vivo, Wistar male rats
Conditions: 10 mg/kg oral, 30 min before PCP 2 mg/kg i.p.; test trial 24 hr after acquisition trial; max 300 seconds; versus vehicle group

For Cc1oc2nc3c(c(NC(=O)CN4CCCC4=O)c2c1C)CCCC3 [compound A, 2-(2-oxopyrrolidin-1-yl)-N-(2,3-dimethyl-5,6,7,8-tetrahydrofuro[2,3-b]quinolin-4-yl)acetamide], the “latent time of test trial (passive avoidance reaction)” value was “significantly prolonged the latent time shortened by the PCP administration”.
